Measured values from patent publication US8673852B2, “Methods of treating neuronal disorders using MNTF peptides and analogs thereof” (Genervon Biopharmaceuticals, LLC, priority 2006, dated 2014).
Where “and” joins values, the source holds several entries; their conditions need not be identical. Equal entries are not always repeated. Where two headings read alike, the source gives them in different places. Ends that are not written are not given here.

Key:
SH-SY5Y cells = test: Cell culture model of Parkinson's disease: SH-SY5Y cell viability (MTT) with or without salsolinol; assay type: cell-based, human; settings: for Viability (% Cells) Mean ± SD: 24 h
Procedure: SH-SY5Y cells were purchased from American Type Culture Collection (Manassas, Va.) and cultured in a complete media containing minimum essential media, Hams F-12 media and Hanks Balanced Salt Solution Gibco-BRL) in a ratio of 2:1:1. The media also contained 10% fetal bovine serum along with penicillin (50 U/ml) and streptomycin ([…]). The cells were cultured in flasks and kept in a humidified incubator containing 5% CO2 in air at 37° C. The media was changed every 2-3 days.
Prior to manipulation, cultures were assigned to different treatment groups based on a randomized block design.
For cell viability experiments, SH-SY5Y cells (0.5×10^5/well) were cultured in a 96-well cell culture plate and treated with (±) SAL (Sigma, St. Louis, Mo.) alone or along with different concentrations of (GM6) (Genervon), with or without Wortmannin (WRT) (Sigma, St. Louis, Mo.), a phosphatidylinositol-3-kinase (PI-3 kinase) inhibitor, for 24 h. Cell viability was determined by Thiazolyl blue (MTT) assay.

embryonic stem cells = test: Differentiation of embryonic stem cells into motor neurons in vitro; assay type: cell-based, murine
[1] = test system: stem cell derived motor neurons; test: Survival of stem cell derived motor neurons; assay type: cell-based; settings: compared with MNTF 33mer
[2] = Immunocytochemical analysis of brain for GM6 with anti-6mer antibody; assay type: in vivo, C57BL/6 mice; settings: 0.2 or 2 mg/kg IV
Procedure: (§1) C57BL6 mice were injected with GM6 at the indicated doses and examined for GM6 in the brain. Half of the brain was taken for immunocytochemical analysis for GM6, the other half (brain) was frozen for ELISA analysis.
(§2) Animals were acclimated for 1 week prior to experimentation. The animals were bolus i.v. dosed via tail vein with vehicle or GM6 at 0.2 or 2 mg/kg. […] Vehicle control received saline solution.
The immunocytochemical stained area in each section was determined with a computer-assisted image analysis system, consisting of a Power Macintosh computer equipped with a Quick Capture frame grabber card, Hitachi CCD camera mounted on an Olympus microscope and camera stand. NIH Image Analysis Software, v. 1.55 was used. The images were captured and the total area of GM6 peptide was determined over the ten sections.

[3] = test system: permanent middle cerebral artery occlusion (MCAO) rat model; test: Permanent middle cerebral artery occlusion (MCAO) rat model, 28 days; settings: 2.5, 10 or 20 mg/kg IV
[4] = test system: primary rat neuronal cell cultures; assay type: cell-based
Procedure: Sprague Dawley rat cortical neuronal cells were isolated from 18-day-old embryonic fetuses and growth in culture for 12 days. Post mortem CSF from control and various neurological disorders donors were applied to the cultures and examined for neuronal viability. In addition, MNTF was added to the cultures to protect the cells from injury.
Neuronal cultures were prepared from 18-day-old Sprague-Dawley rat fetuses. Fetal rat midbrains were dissected and incubated for 15 min in a solution of 2 mg/mL trypsin in Ca2+- and Mg2+-free Hanks' balanced salt solution (HBSS) buffered with 10 mM HEPES (GIBCO Life Technologies, Paisley, Scotland). The tissue was then exposed for 2 min to soybean trypsin inhibitor (1 mg/mL in HBSS) and rinsed three times in HBSS. Cells were dissociated by trituration and distributed to 96-well or 24-well poly-L-lysine-coated plastic culture plates (Costar, Cambridge, Mass.). Initial plating densities were approximately 160-180 cells/mm2. At the time of plating, each well contained 0.2 ml of DMEM/F12 medium (GIBCO Life Technologies, NY) supplemented with 100 mL/L fetal bovine serum (Sigma Chemicals, St. Louis, Mo.). After a 24-hr period, the DMEM/F12 medium was replaced with 0.15 mL of 2% v/v B-27 Neurobasal medium supplemented with 2 mM GlutaMAX and 0.5% w/v D-(+) glucose (GIBCO Life Technologies). Twice a week, two-thirds of the Neurobasal medium was replaced with freshly prepared medium of the same composition. Cultures were used for neurotoxicity experiments after 12 days in culture. The research investigators at NTS were unaware of the material prior to, during the study and when the preliminary data were presented to the Sponsor (GB).
UCLA Human Brain and Spinal Fluid Resource Center (Los Angeles, Calif.) supplied the post mortem CSF samples from five donors of each of the nine study groups along with identification and clinical diagnosis and neuropathology diagnosis documents. Samples were stored at −170° C. prior to shipment and were shipped with dry ice. The study groups were control (no neurological disorder), Amyotrophic Lateral Sclerosis (ALS), Neuropathy (NP), Multiple Sclerosis (MS), Alzheimer's Disease (AD), Batten's Disease (BD), Huntington's Disease (HD), Parkinson's Disease (PD), and Cerebral Ischemia (stroke).
To test the effects of CSF on neuronal cell survival, CSF was added to the cultures in Neurobasal medium containing 10% CSF. CSF was added to the cultures and examined after 48 hours. Images of cultures were taken and then the cultures were subjected to MTT assay (see below) to determine the % cell death. Additional cultures were incubated with MNTF (100 nM) added to the cultures 2 hours prior to addition of CSF.
MTT assay. Viability of primary neurons was determined as described. The relative number of surviving cells was determined in triplicate using the value for cells stimulated with vehicles as 100%. Cell survival was assessed on the 2nd day of treatment via an MTT assay. MTT (3-[4,5-dimethylthiazol-2-yl]-2,5-diphenyltetrazolium bromide) was diluted to […] in Hanks' solution (Biochrom) and added to cultures for two hours at 37° C. The MTT formazan product was released from the cells by adding dimethylsulfoxide, and measured at 570 nm in an Ultrospect III spectrophotometer (Pharmacia). Relative survival in comparison to untreated controls could then be determined.

Safety in animal studies = assay type: in vivo; settings: over 1000 Sprague Dawley rats and 15 of both wobbler mice and normal littermates
[5] = test system: middle cerebral artery occlusion (MCAO) mouse model; test: MCAO mouse model, 1 hour ischemia and 14 days reperfusion, time of first dose varied; assay type: in vivo, C57BL/6 mice; settings: 5 mg/kg IV
Procedure: (§3) The MABP and heart rate was recorded using a Visitech System blood pressure monitor.
Formulation of GM602 (CS Bio Co., Menlo Park, Calif., CS1507, GMP013, lot C811) was performed by NTS as a stock solution by reconstituting GM602 with (100%) saline that was stored at 4° C. Vehicle control received saline solution. The bolus IV injections via tail with GM602 was initiated at times of 0, 3, 6, 12 and 24 hours after the start of reperfusion and subsequently every day for 3 days following injury.
(§4) This study involved a transient model of ischemia. […] After the nylon suture was in place for 1 hour, it was pulled back into the ECA and the incision closed.
. […] The brains were removed and chilled for 15 minutes at −20° C. before being placed in a Rodent Brain Matrix. Coronal sections (1-mm thickness) were prepared and subjected to 2% triphenyltetrazolium chloride (TTC) staining at 37° C. Seven serial one-mm thick coronal sections through the rostral to caudal extent of the infarction were obtained from each brain, beginning two-mm from the frontal pole. […] The infarct area in each section was determined with a computer-assisted image analysis system, consisting of a Power Macintosh computer equipped with a Quick Capture frame grabber card, Hitachi CCD camera mounted on an Olympus microscope and camera stand. […] The images were captured and the total area of damage determined over the seven sections.

[6] = test system: middle cerebral artery occlusion (MCAO) mouse model; test: Middle cerebral artery occlusion (MCAO) mouse model, 1 hour ischemia and 24 hours reperfusion; assay type: in vivo, C57BL/6 mice; settings: 1 or 5 mg/kg IV single dose
Procedure: as §3
All animals were subjected to 1.0 h ischemia followed by 24 h reperfusion. […] Vehicle control received saline solution.
as §4
. The brains were transcardially perfused with 4 degree C., 10% phosphate-buffered saline (PBS). The brains were removed and chilled for 15 minutes at −20 degree C. before being placed in a Rodent Brain Matrix. Coronal sections (1-mm thickness) were prepared and subjected to 2% triphenyltetrazolium chloride (TTC) staining at 37 degree C. Seven serial one-mm thick coronal sections through the rostral to caudal extent of the infarction were obtained from each brain, beginning two-mm from the frontal pole. The TTC stained sections were placed in 10% neutral buffered formalin and kept in darkness at 4° C. for at least 24 hours. The infarct area in each section was determined with a computer-assisted image analysis system, consisting of a Power Macintosh computer equipped with a Quick Capture frame grabber card, Hitachi CCD camera mounted on an Olympus microscope and camera stand. NIH Image Analysis Software, v. 1.55 was used. The images were captured and the total area of damage determined over the seven sections.

[7] = GM6 levels in brain by competitive ELISA after IV injection (blood brain barrier penetration); assay type: in vivo, C57BL/6 mice; settings: for increase in GM6 in the brain vs vehicle: 4 hours; for level at time molar at 4 h: male, C57BL/6, mouse, WT mice, brain collected 4 hours later, read-out: ELISA MNTF (μM) in the brain
Procedure: as §1, §2
To measure GM6 levels in samples using the competitive ELISA kit. Affinity purified rabbit anti-6Mer was coated on ELISA plate at 10 ug/ml in coating buffer. 6Mer-biotin was used at 1 uM (final dilution) in the assay. The known concentrations of GM6 (competitor) were used as reference standards starting from 80 uM and titrating 2-fold down 0.625 uM in the test for establishing standard curve. Concentration of tested samples was estimated from their OD450 observation based on the standard curve.
The brain tissue was prepared in cell lysis buffer containing 100 mM Tris HCl, pH 7.0, containing 2% BSA, 1 M NaCl, 4 mM EDTA, 2% Triton X-100, 0.1% sodium azide and protease inhibitors (Complete™, Mini, Boehringer Mannheim). Homogenates were prepared in 10 volumes of buffer to tissue wet weight. The homogenates were centrifuged for 30 minutes at 14,000×g. The resulting supernatant was used for ELISA with the appropriate volume adjustment.
For the assay, the anti-6Mer pAb was diluted to 10 ug/ml in ELISA coating buffer. The 96-well micro-titer plates were coated with 100 ul/well of the diluted pAb. The plates were covered and kept refrigerated overnight. Next day, the plates were blocked with 200 ul/well TBS with 3% BSA, and kept at RT for 60 min. The plates were washed 3× with TBST (TBS+0.05% Tween 20). For each plate, 10 ml 1 uM 6Mer-biotin and make 1 ml standard mix was prepared: 1 uM 6Mer-biotin with 80 uM 6Mer. For each plate, lanes 1 and 2 were used for the standard curve. 1 uM 6Mer-biotin (100 μl) was added to all wells except A1 and A2 and 200 ul/well of standard mix was added to A1 and A2. A serial 2-fold dilution from wells A1 and A2 down to wells H1 and H2 was performed by taking out 100 ul sample from each well and mix it with next well—pipetting up and down at least 8 times. The extra 100 ul at the final wells (H1 and H2) was discarded. Test samples (brain homogenate) was diluted in Ab dilution buffer and mixed at a 1:50 with the 1 uM 6Mer-biotin. The plate was mixed on a shaker at 400 rpm for 2 hours at RT. The samples were washed 6× with TBST. Streptavidin-HRP (10 ml per plate) solution was prepared by diluting Streptavidin-HRP to 1:2000 in Ab dilution buffer. The plate was mixed on the shaker for another 1 hour at RT. The samples were wash 8× with TBST. […] The reaction was stopped with 50 ul 1M HCl. and read OD450 immediately.

## C[C@@H]1NCCc2cc(O)c(O)cc21 [Salsolinol, reference compound]
SH-SY5Y cells; Salsolinol 100 μM alone, MTT
  Viability (% Cells) Mean ± SD: 36.48 ± 12.78%
SH-SY5Y cells; Salsolinol 100 μM alone, MTT, listed as SAL
  Viability (% Cells) Mean ± SD: 36.5%
SH-SY5Y cells; salsolinol 100 μM, 24 hour treatment
  decrease in the number of cells: 63.7%

## LGTFWGDTLNCWMLSAFSRYARCLAEGHDGPTQ (LGTFWGDTLNCWMLSAFSRYARCLAEGHDGPTQ) [33-mer]
Embryonic stem cells; in conjunction with a low concentration of RA
  differentiation of ES cells into motor neurons: induced differentiation

## MLSAFSRYAR [MNTF 10mer]
Embryonic stem cells; in vitro
  concentrations at which at least as effective as the full-length MNTF 33mer at stimulating differentiation of embryonic stem cells into motor neurons: ≥ 0.01 µg/mL
[1]
  enhancing the survival of stem cell derived motor neurons: nearly as effective as the MNTF 33mer

## FSRYAR [GM6, FSRYAR]
[2]
  immunoreactivity for GM6 in brain tissue: No immunoreactivity was detected
[3]
  changes in HR, BP, pO2, pCO2, or pH: no changes
[4]; AD CSF + 100 nM MNTF vs AD CSF
  % increase (↑) in cell survival: 191%
[4]; ALS CSF + 100 nM MNTF vs ALS CSF
  % increase (↑) in cell survival: 175%
[4]; HD CSF + 100 nM MNTF vs HD CSF
  % increase (↑) in cell survival: 271%
[4]; MS CSF + 100 nM MNTF vs MS CSF
  % increase (↑) in cell survival: 246%
[4]; PD CSF + 100 nM MNTF vs PD CSF
  % increase (↑) in cell survival: 198%
[4]; Stroke CSF + 100 nM MNTF vs Stroke CSF
  % increase (↑) in cell survival: 205%
Safety in animal studies
  safety problems in animal studies: No safety problems were identified
[5]
  changes in CBF, HR, BP, pO2, pCO2, or pH: no changes
[6]
  changes in HR, BP, pO2, pCO2, or pH: no changes
[7]; 0.2 mg/kg IV bolus
  increase in GM6 in the brain vs vehicle: 400%
  level at time molar at 4 h: 1.76 µM
[7]; 2 mg/kg IV bolus
  increase in GM6 in the brain vs vehicle: 3000%
  level at time molar at 4 h: 12.9 µM
SH-SY5Y cells; GM6 0.1 mg/ml, no salsolinol, MTT
  Viability (% Cells) Mean ± SD: 101.2 ± 7.260%
SH-SY5Y cells; GM6 1 mg/ml, no salsolinol, MTT
  Viability (% Cells) Mean ± SD: 108.0 ± 8.249%
SH-SY5Y cells; GM6 10 mg/ml + WRT (10 μM), no salsolinol
  Viability (% Cells) Mean ± SD: 93.81 ± 9.246%
SH-SY5Y cells; GM6 10 mg/ml, no salsolinol, MTT
  Viability (% Cells) Mean ± SD: 119.9 ± 14.01%
SH-SY5Y cells; Salsolinol 100 μM + GM6 0.1 mg/ml
  Viability (% Cells) Mean ± SD: 66% and 65.85 ± 10.80%
SH-SY5Y cells; Salsolinol 100 μM + GM6 1 mg/ml
  Viability (% Cells) Mean ± SD: 85% and 85.19 ± 10.18%
SH-SY5Y cells; Salsolinol 100 μM + GM6 10 mg/ml + WRT (10 μM)
  Viability (% Cells) Mean ± SD: 41.35 ± 10.79%
SH-SY5Y cells; Salsolinol 100 μM + GM6 10 mg/ml
  Viability (% Cells) Mean ± SD: 95% and 95.57 ± 8.328%
